In patent publication US7196108B2, “Bicyclic heterocycles for the treatment of diabetes and other diseases” (Incyte San Diego Inc., priority 2002, dated 2007):
Entries after “also recorded” stand apart in the source; their conditions may differ.

Columns and labels:
KKA^y mice = test: Oral administration in the treatment of type 2 diabetes in KKA^y mice (serum glucose and triglycerides); assay type: in vivo, mouse; conditions: 15 mg/kg oral gavage once daily in sesame oil, days 7 and/or 14, vs control; for serum glucose level: FIG. 2; for serum triglyceride level: FIG. 3
Method: These models include among others, db/db mice, ob/ob mouse, and KKA^y mice. […] A procedure for such experiments was described in detail in Iwatsuka, et al., 1970 General Survey of Diabetic Features of Yellow KK Mice. Endocrinol. Japon. 17: 23–35, incorporated herein by reference. The testing of the compounds of the invention was conducted as described in Example 22. The animals were treated with a single daily oral dose of 15 mg/kg of the test compound suspended in sesame oil (dose volume of 3–5 ml/kg). At the end of one and two weeks of treatment the animals were bled from the tail vein and their serum glucose and triglycerides and/or cholesterol was measured in duplicate.
Experimental Procedure: Six to eight week-old male KKA^y mice (available from Jackson Labs of Bar Harbour, Me.) were housed in a fixed 12–12-hr artificial light-dark cycle, and maintained on a standard rodent diet provided ad libitum. Animals were allowed two days to acclimate in this experimental environment prior to the initiation of the study. Prior to initiation of treatment, the animals were bled from the tail vein (100–200 μL of whole blood) and serum levels of glucose and triglycerides were measured in duplicate (Trinder kits; Sigma, St.Louis, Mo.). Based on these initial measures, animals were sorted into groups with approximately the same average serum triglyceride levels. Once sorted, the animals were housed one per cage and provided rodent diet ad libitum.
Treatment group A (n=6/group): • 1) KKA^y control (sesame oil) • 2) Compound 1 (15 mg/kg)
Treatment group B (n=6/group): • 1) KKA^y control (sesame oil) • 2) Compound 6 (15 mg/kg)
Treatment group C (n=6/group): • 1) KKA^y control (sesame oil) • 2) Compound 9 (15 mg/kg)
All compounds were suspended in sesame oil, and administered to animals in a volume of 3 ml/kg/dose. All treatments were administered by oral gavage once daily.
To monitor the effect of the tested Compounds, animals were bled at the end of the dark cycle on days 7 and/or 14 of the treatment period. Serum glucose and triglyceride levels were measured in duplicate. The blood was kept at room temperature to allow coagulation, after which the serum was separated and assayed for glucose and triglyceride levels.

3T3-L1 pre-adipocytes = conditions: disclosed in U.S. Pat. No. 6,515,003; cited from earlier work
[1] = disclosed in U.S. Pat. No. 6,515,003; cited from earlier work

CC(C)Cc1cc(-c2cc(/C=C3\SC(=O)NC3=O)ccc2OC(F)(F)F)c2c(c1)C(C)(C)CO2 [Compound 1, 5-[3-(5-Isobutyl-3,3-dimethyl-2,3-dihydro-benzofuran-7-yl)-4-trifluoromethoxy-benzylidene]-thiazolidine-2,4-dione]
melting point: 142 to 146 °C | serum glucose level (KKA^y mice): significantly lowered; also recorded: reduction | serum triglyceride level (KKA^y mice): lowered; also recorded: reduction

COc1c(F)cc(/C=C2\SC(=O)NC2=O)c(F)c1-c1cc(CC(C)C)cc2c1OCC2(C)C [Compound 6, 5-[2,5-Difluoro-3-(5-isobutyl-3,3-dimethyl-2,3-dihydro-benzofuran-7-yl)-4-methoxy-benzylidene]-thiazolidine-2,4-dione]
serum glucose level (KKA^y mice): significantly lowered; also recorded: reduction | serum triglyceride level (KKA^y mice): lowered; also recorded: reduction

CC1(C)COc2c(-c3cc(/C=C4\SC(=O)NC4=O)ccc3OC(F)(F)F)cc(-c3ccoc3)cc21 [Compound 9, 5-[3-(5-Furan-3-yl-3,3-dimethyl-2,3-dihydro-benzofuran-7-yl)-4-trifluoromethoxy-benzylidene]-thiazolidine-2,4-dione]
serum glucose level (KKA^y mice): significantly lowered; also recorded: reduction | serum triglyceride level (KKA^y mice): lowered; also recorded: reduction

Cc1cc2c(cc1-c1cc(/C=C3\SC(=O)NC3=O)ccc1OC(F)(F)F)C(C)(C)CCC2(C)C [Compound 20, 5-[3-(3,5,5,8,8-Pentamethyl-5,6,7,8-tetrahydro-naphthalen-2-yl)-4-trifluoromethoxy-benzylidene]-thiazolidine-2,4-dione]
adipocyte differentiation activity (3T3-L1 pre-adipocytes): active | activity for the treatment of diabetes [1]: active
